PMC13233288, “Spider venom peptides Ht1a and Gg1a are toxic to honeybee parasite Varroa destructor by topical application” (npj Drug Discovery, 2026)
“Also recorded” adds a separate entry of the source. No end group written: not given here.

Columns and labels:
[1] = system: honeybees; assay: Topical application of synthetic peptides to honeybees (off-target); format: in vivo, Apis mellifera; details: 25 μg peptide per honeybee (52-fold the mite dose) in 2% Silwet (v/v), n = 10 workers per group, 3 repeats, vs 2% Silwet control
From the text: If sprayed within a beehive, the varroacidal peptides would need to lethal for V. destructor, but safe for the honeybees. To evaluate potential off-target activities of the varroacidal peptides, we first needed to quantify how much larger the body surface of the bees is in comparison to the mites to understand how much more of the varroacidal peptides they would receive when being sprayed. Assuming an elliptical body shape of V. destructor, the surface area can be calculated according to the following formula: A=π×a×b×2
This also means that if we evenly applied these peptides via spraying at a certain concentration to both bees and mites, then the bees would receive a 34-fold higher peptide quantity due to their correspondingly higher surface area.
To allow for an additional safety margin, we topically applied 25 μg of each peptide per bee, which is 52-fold more than the 0.48 μg that each varroa mite received. The effects of sHt1a and sGg1a were tested on honeybees kept in plastic containers in the laboratory. The containers consisted of 250 ml polypropylene round cups with a 52 mm diameter hole cut into the bottom, covered with a 68 mm diameter circle of all-purpose cloth (brand: Peggy Perfect) hot glued to the edge of the hole on the outside of the cup (Supplementary Fig. 3). A 14 mm diameter hole was cut in the lid of the cup to insert a 5 mL syringe which served as feeder. The syringe was filled with 50% sucrose solution, and its tip was cut off to facilitate solution intake by the bees. Honeybee workers were obtained from a comb with emerging individuals placed in an incubator set to 34.5 °C and 70% humidity. The next day, groups of 10 freshly emerged workers were collected, introduced into the prepared cages and placed back in the incubator overnight. The next morning, peptide and control solutions to be tested were freshly prepared from the stock solutions stored at 4 °C. Then, the bees were sedated with CO2 gas until they stopped moving. Immediately after all bees stopped moving, the plastic lid was removed, and 15 µL of testing solution (containing 2% Silwet (v/v) or 25 μg of each peptide per bee) was topically applied on each of the 10 bees per group. The solution was applied on the abdomen or thorax, but not on the wings or head of the individuals. Following treatment, the worker bees were allowed to recover from the sedation and the containers with the bees were put back in the incubator, with mortality being manually checked daily. At the end of each experiment, all arthropods were euthanised by freezing at −20 °C.

[2] = system: hNaV1.4; assay: Automated whole-cell patch clamp, hNaV1.4 + β1 in HEK 293 cells; format: cell-based, human; details: 3 μM, 50 ms pulse to −20 mV from −90 mV, ECS with 0.1% BSA, at least 2 min
Protocol: (§1) To examine for off-target activity on mammalian ion channels and receptors, we first tested the activity of sHt1a and Gg1a against human NaV channels. Whole-cell patch-clamp recordings were performed on Human Embryonic Kidney (HEK) 293 cells stably expressing human NaV1.4 or NaV1.5 in conjunction with the β1 subunit (SB Drug Discovery, Glasgow, United Kingdom) using a QPatch II automated electrophysiology platform (Sophion Bioscience, Ballerup, Denmark). Whole-cell currents were filtered at 8 kHz and acquired at 25 kHz. The linear leak was corrected by P/4 subtraction (leak potential −90 mV, leak sweep amplitude 10%). Series resistance across recorded cells ranged between 5 and 10 MΩ. The extracellular solution (ECS) consisted of (in mM): 145 NaCl, 4 KCl, 2 CaCl2, 1 MgCl2, 10 HEPES, and 10 glucose, adjusted to pH 7.4 with NaOH and to 305 mOsm/L with sucrose. The intracellular solution (ICS) consisted of (in mM): 140 CsF, 1 EGTA, 5 CsOH, 10 HEPES, and 10 NaCl, adjusted to pH 7.3 with CsOH and 320 mOsm/L with sucrose. Currents were elicited from a holding potential of −90 mV delivered with a 50 ms depolarising pulse to −20 mV every 20 s (0.05 Hz). Peptides were diluted in ECS containing 0.1% BSA and applied to cells for at least 2 min at the concentrations stated. Peak currents were normalised to the buffer control.

[3] = system: hNaV1.5; assay: Automated whole-cell patch clamp, hNaV1.5 + β1 in HEK 293 cells; format: cell-based, human; details: 3 μM, 50 ms pulse to −20 mV from −90 mV, ECS with 0.1% BSA, at least 2 min
Protocol: as §1

[4] = system: hNaV1.2/NaV1.7; assay: FLIPR Ca2+ fluorescence, veratridine-stimulated SH-SY5Y cells; format: cell-based, human; details: 10 µM, added 5 min prior to veratridine (50 µM)
Protocol: To further test the selectivity of sHt1a and sGg1a, we examined their activity on hNaV1.2/NaV1.7 and hCaV2.2 channels, as well as the hα3β2/4 nicotinic acetylcholine receptor (nAchR), that are endogenously expressed in the neuroblastoma cell line SH-SY5Y using a high-throughput fluorescent assay as previously described. In brief, SH-SY5Y cells were seeded at a density of 40,000 cells/well in black-walled imaging plates (Corning, Lowell, MA, USA), then incubated for 48 h at 37 °C in a 5% humidified CO2 incubator. On the day of the assay, cells were loaded with Calcium 4 No-wash dye (Molecular Devices) by reconstituting the lyophilised dye in physiological salt solution (PSS in mM: 140 NaCl, 11.5 glucose, 5.9 KCl, 1.4 MgCl2, 1.2 NaH2PO4, 5 NaHCO3, 1.8 CaCl2, 10 HEPES, pH 7.4). Cells were incubated with the dye for 30 min at 37 °C in a 5% humidified CO2 incubator. Gg1a and Ht1a (10 µM) were added 5 min prior to stimulation with either veratridine (50 µM, hNaV1.2/NaV1.7 activator), nicotine (30 µM, hα3β2/4 nAchR activator) or KCl/CaCl2 (90 mM/5 mM, CaV1.3/2.2 activator) Fluorescent responses were recorded using a FLIPR^Penta fluorescent plate reader (Molecular Devices) with excitation at 470–495 nm and emission at 515–575 nm.

Row | Substance | honeybee mortality/survival [1] | honeybee mortality/survival ([1]; listed as sHt1a) | effect on hNaV1.4 currents [2] | effect on hNaV1.4 currents ([2]; listed as sHt1a) | effect on hNaV1.5 currents [3] | effect on hNaV1.5 currents ([3]; listed as sHt1a) | effect on neuronal NaV channels [4] | effect on neuronal NaV channels ([4]; listed as sHt1a) | honeybee mortality/survival ([1]; listed as sGg1a) | effect on hNaV1.4 currents ([2]; listed as sGg1a) | effect on hNaV1.5 currents ([3]; listed as sGg1a) | effect on neuronal NaV channels ([4]; listed as sGg1a)
1 | KYCAPRKAVCNTPADCCDKSSRCAYPNYGLGYYLDSEFFGKRKICSWRL (also: bicyclic or more (positions not given here)) [Ht1a, μ-gradutoxin-Ht1a] | innocuous to honeybees | neither peptide caused more mortality; also recorded: did not alter honeybee survival | inactive | did not significantly affect | inactive | did not significantly affect | inactive | did not significantly affect |  |  |  | 
2 | U1-macrothelitoxin-Gg1a | innocuous to honeybees |  | inactive |  | inactive |  | inactive |  | neither peptide caused more mortality; also recorded: did not alter honeybee survival | did not significantly affect | did not significantly affect | did not significantly affect
